Reference: publication PMC6753678, “Fueling Open Innovation for Malaria Transmission-Blocking Drugs: Hundreds of Molecules Targeting Early Parasite Mosquito Stages” (Frontiers in Microbiology, 2019)
Like-named read-outs stand apart in the source and are kept apart here.

Tests used:
HepG2 cells [1] = test: HepG2 cytotoxicity assay; details: for IC50: read-out: HepG2 cytotoxicity assay IC50, dose response confirmation
In short: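 HepG2 cells, 2,500 per well in MEM with 10% FBS and 1% NEAA, exposed to compounds for 48 h at 37°C, 5% CO2. Viability read by fluorescence; percent inhibition relative to 50 μM doxorubicin and DMSO controls.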

[2] = test system: P. falciparum late stage (stages IV-V) gametocytes; test: P. falciparum late stage gametocyte ATP depletion assay (Pf GC-ATP); details: 1: YES, 0: NO
[3] = test system: P. berghei ookinete development; details: for Is compound selective in assay? Pb ODA active?: 1: YES, 0: NO; for % inhibition, Replicate A / % inhibition, Replicate B: primary screen at 1 μM
[4] = test system: P. falciparum late stage (stages IV-V) gametocytes; set-up: method as in Almela et al 2016; details: ref Almela et al 2016, read-out: Pf GCT ATP IC50, cited from earlier work
HepG2 cells [5] = details: ref Almela et al 2016, cited from earlier work
[6] = test system: 3D7-strain P. falciparum asexual parasites; test: P. falciparum asexual growth inhibition assay (Pf GIA); type: cell-based, Plasmodium falciparum; details: dose response confirmation; read-out: Pf asexual growth inhibition assays IC50
In short: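 Parasites at 0.25% parasitemia, 2% hematocrit in Albumax-supplemented RPMI were exposed to compounds in dose response for 72 h at 37°C under 5% CO2/5% O2. Viability was read as LDH activity (NBT/diaphorase, A650 after freeze-thaw). Percent inhibition was calculated against chloroquine and DMSO controls, mean of three biological replicates.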

[7] = HepG2 values of the three screens unified
[8] = read-out: Pb ODA IC50, this manuscript
[9] = read-out: Pb Ookinete development assay IC50, dose response confirmation
[10] = HepG2 cytotoxicity unified across screens, >25 set to 25.00
[11] = >10-fold selectivity over cytotoxicity
[12] = P. falciparum late stage gametocyte ATP assay, TCAMS screen
[13] = reported with the Pf GCT ATP screen

Compound: Cn1nc(C(F)(F)F)c(-c2ccc(Br)cc2)c1NC(=O)Cc1ccccc1F [TCMDC-123792]
- Unified cytotox (HepG2 cells [1]; [7]): 100.00 µM
- IC50 (HepG2 cells [1]): 100000 nM
- Is compound selective in assay? Pf GC-ATP active? [2]: 1 (1: YES)
- Is compound selective in assay? Pb ODA active? [3]: 1 (1: YES)
- % inhibition, Replicate A [3]: 45.62%
- % inhibition, Replicate B [3]: 73.81%
- IC50 [3, 8]: 2120 nM
- IC50 [3, 9]: 2120 nM
- IC50 [4]: 1790 nM
- HepG2 cytoxicity (Pf GCT ATP screen) (HepG2 cells [5]): >25 µM
- IC50 [6]: 206 nM

Compound: CN1c2ccc([N+](=O)[O-])cc2C(C)(C)C12C=Cc1cc(Br)cc([N+](=O)[O-])c1O2 (centres unmarked) [TCMDC-124178]
- HepG2 cytoxicity (Pb ODA, this manuscript) (HepG2 cells [1]): 29.17 µM
- Unified cytotox (HepG2 cells [1]; [7]): 29.17 µM
- IC50 (HepG2 cells [1]): 29200 nM
- Is compound selective in assay? Pf GC-ATP active? [2]: 1 (1: YES)
- Is compound selective in assay? Pb ODA active? [3]: 1 (1: YES)
- % inhibition, Replicate A [3]: 65.23%
- % inhibition, Replicate B [3]: 65.28%
- IC50 [3, 8]: 1600 nM
- IC50 [3, 9]: 1600 nM
- IC50 [4]: 1090 nM
- HepG2 cytoxicity (Pf GCT ATP screen) (HepG2 cells [5]): >25 µM
- IC50 [6]: 197 nM

Compound: Cl.Cl.c1ccc2c(NCCCCCCNc3c4ccccc4nc4ccccc34)c3ccccc3nc2c1 [TCMDC-124285]
- HepG2 cytoxicity (Pb ODA, this manuscript) (HepG2 cells [1]): 8.13 µM
- Unified cytotox (HepG2 cells [1]; [7]): 7.56 µM
- IC50 (HepG2 cells [1]): 8130 nM
- Is compound selective in assay? Pf GC-ATP active? [2]: 1 (1: YES)
- Is compound selective in assay? Pb ODA active? [3]: 0 (0: NO)
- % inhibition, Replicate A [3]: 78.92%
- % inhibition, Replicate B [3]: 53.92%
- IC50 [3, 8]: 1500 nM
- IC50 [3, 9]: 1500 nM
- IC50 [4]: 250 nM
- HepG2 cytoxicity (Pf GCT ATP screen) (HepG2 cells [5]): 7 µM
- IC50 [6]: 532 nM

Compound: Cc1ccc(C)c(CC(=O)N2CCC(n3c(C)nc4ccc(F)cc43)CC2)c1 [TCMDC-124790]
- HepG2 cytoxicity (Pb ODA, this manuscript) (HepG2 cells [1]): 57.54 µM
- Unified cytotox (HepG2 cells [1]; [7]): 57.54 µM
- IC50 (HepG2 cells [1]): 57500 nM
- Is compound selective in assay? Pf GC-ATP active? [2]: 1 (1: YES)
- Is compound selective in assay? Pb ODA active? [3]: 1 (1: YES)
- % inhibition, Replicate A [3]: 55.29%
- % inhibition, Replicate B [3]: 63.09%
- IC50 [3, 8]: 3660 nM
- IC50 [3, 9]: 3660 nM
- IC50 [4]: 920 nM
- HepG2 cytoxicity (Pf GCT ATP screen) (HepG2 cells [5]): >25 µM
- IC50 [6]: 252 nM

Compound: COc1cccc(CC(=O)N2CCC(n3c(C)nc4ccc(C)cc43)CC2)c1 [TCMDC-124791]
- Unified cytotox (HepG2 cells [1]; [7]): 100.00 µM
- IC50 (HepG2 cells [1]): 100000 nM
- Is compound selective in assay? Pf GC-ATP active? [2]: 1 (1: YES)
- Is compound selective in assay? Pb ODA active? [3]: 1 (1: YES)
- % inhibition, Replicate A [3]: 79.91%
- % inhibition, Replicate B [3]: 77.59%
- IC50 [3, 8]: 1120 nM
- IC50 [3, 9]: 1120 nM
- IC50 [4]: 470 nM
- HepG2 cytoxicity (Pf GCT ATP screen) (HepG2 cells [5]): >25 µM
- IC50 [6]: 98 nM

Compound: COc1cccc(Nc2c(C(N)=O)cnc3ccc(-c4ccc([S+](C)[O-])cc4)cc23)c1.O=C(O)C(F)(F)F (centres unmarked) [TCMDC-135184]
- Unified cytotox (HepG2 cells [1]; [10]): 25.00 µM
- Is compound selective in assay? Pf GC-ATP active? [2, 11]: 1 (1: YES)
- IC50 [4, 12]: 1430 nM
- HepG2 cytoxicity (HepG2 cells [5]; [13]): >25 µM

Compound: COc1cc(NC(=O)c2sc(-c3ccc(Cl)cc3)cc2NC(=O)c2cccnc2)ccc1OCCN1CCCC1 [TCMDC-135397]
- Unified cytotox (HepG2 cells [1]; [10]): 25.00 µM
- Is compound selective in assay? Pf GC-ATP active? [2, 11]: 1 (1: YES)
- IC50 [4, 12]: 610 nM
- HepG2 cytoxicity (HepG2 cells [5]; [13]): >25 µM

Compound: Cc1ccc(-n2c(C)nc3c(Nc4ccc(-c5ccncc5)cc4)ncnc32)c(C)c1 [TCMDC-136289]
- Unified cytotox (HepG2 cells [1]; [10]): 25.00 µM
- Is compound selective in assay? Pf GC-ATP active? [2, 11]: 1 (1: YES)
- IC50 [4, 12]: 530 nM
- HepG2 cytoxicity (HepG2 cells [5]; [13]): >25 µM

Compound: CS(=O)(=O)c1cccc(-c2cnc3[nH]cc(-c4cccc(CCN)c4)c3c2)c1 [TCMDC-136307]
- Unified cytotox (HepG2 cells [1]; [10]): 25.00 µM
- Is compound selective in assay? Pf GC-ATP active? [2, 11]: 1 (1: YES)
- IC50 [4, 12]: 470 nM
- HepG2 cytoxicity (HepG2 cells [5]; [13]): >25 µM

Compound: CCn1ncc2c(NC3CCOCC3)c(CNC(=O)c3ccnn3C)c(C)nc21 [TCMDC-136560]
- Unified cytotox (HepG2 cells [1]; [10]): 25.00 µM
- Is compound selective in assay? Pf GC-ATP active? [2, 11]: 1 (1: YES)
- IC50 [4, 12]: 1640 nM
- HepG2 cytoxicity (HepG2 cells [5]; [13]): >25 µM

Compound: Cl.Ic1cc(CNC2CCCCC2)ccc1OCc1cccc(COc2ccc(CNC3CCCCC3)cc2I)c1 [TCMDC-137261]
- Unified cytotox (HepG2 cells [1]; [10]): 25.00 µM
- Is compound selective in assay? Pf GC-ATP active? [2, 11]: 1 (1: YES)
- IC50 [4, 12]: 330 nM
- HepG2 cytoxicity (HepG2 cells [5]; [13]): >25 µM

Compound: COc1ccc2nc3cc(Cl)ccc3c(NCCCCCCNc3c4ccc(Cl)cc4nc4ccc(OC)cc34)c2c1.Cl.Cl.Cl.Cl [TCMDC-137503]
- Unified cytotox (HepG2 cells [1]; [10]): 25.00 µM
- Is compound selective in assay? Pf GC-ATP active? [2, 11]: 1 (1: YES)
- IC50 [4, 12]: 50 nM
- HepG2 cytoxicity (HepG2 cells [5]; [13]): >25 µM

Compound: CC(C)CCNC(=N)Nc1ccc(OCCCCCOc2ccc(NC(=N)NCCC(C)C)cc2)cc1 [TCMDC-137614]
- Unified cytotox (HepG2 cells [1]; [10]): 25.00 µM
- Is compound selective in assay? Pf GC-ATP active? [2, 11]: 1 (1: YES)
- IC50 [4, 12]: 510 nM
- HepG2 cytoxicity (HepG2 cells [5]; [13]): >25 µM

Compound: CC(C)CCNC(=N)Nc1ccc(OCCCOc2ccc(NC(=N)NCCC(C)C)cc2)cc1 [TCMDC-137615]
- Unified cytotox (HepG2 cells [1]; [10]): 25.00 µM
- Is compound selective in assay? Pf GC-ATP active? [2, 11]: 1 (1: YES)
- IC50 [4, 12]: 290 nM
- HepG2 cytoxicity (HepG2 cells [5]; [13]): >25 µM

Compound: CC(=NNC(=S)NCCc1ccccn1)c1ccccn1 [TCMDC-137895]
- Unified cytotox (HepG2 cells [1]; [10]): 25.00 µM
- Is compound selective in assay? Pf GC-ATP active? [2, 11]: 1 (1: YES)
- IC50 [4, 12]: 1490 nM
- HepG2 cytoxicity (HepG2 cells [5]; [13]): >25 µM

Compound: COc1cc2nc(NCC3CCN(c4nc(N)c5cc(OC)c(OC)cc5n4)CC3)nc(N)c2cc1OC [TCMDC-138723]
- Unified cytotox (HepG2 cells [1]; [10]): 25.00 µM
- Is compound selective in assay? Pf GC-ATP active? [2, 11]: 1 (1: YES)
- IC50 [4, 12]: 1420 nM
- HepG2 cytoxicity (HepG2 cells [5]; [13]): >25 µM

Compound: CCN(CC)Cc1cc(Nc2c3ccc(Cl)cc3nc3cccc(OC)c23)ccc1O.Cl [TCMDC-139222]
- Unified cytotox (HepG2 cells [1]; [10]): 25.00 µM
- Is compound selective in assay? Pf GC-ATP active? [2, 11]: 1 (1: YES)
- IC50 [4, 12]: 1000 nM
- HepG2 cytoxicity (HepG2 cells [5]; [13]): >25 µM

Compound: N=C(N)Nc1nc(-c2ccc(NC(=O)Nc3cccc(-c4csc(NC(=N)N)n4)c3)cc2)cs1 [TCMDC-139559]
- Unified cytotox (HepG2 cells [1]; [10]): 25.00 µM
- Is compound selective in assay? Pf GC-ATP active? [2, 11]: 1 (1: YES)
- IC50 [4, 12]: 1430 nM
- HepG2 cytoxicity (HepG2 cells [5]; [13]): >25 µM

Compound: CC(Cc1ccc(CNC(=O)NCc2ccc(CC(C)NCCc3cccc(Cl)c3)cc2)cc1)NCCc1cccc(Cl)c1 (centres unmarked) [TCMDC-139648]
- Unified cytotox (HepG2 cells [1]; HepG2 cytotoxicity unified across the three screens): 4.18 µM
- Is compound selective in assay? Pf GC-ATP active? [2]: 0 (0: NO)
- IC50 ([4]; TCAMS screen comparison): 610 nM
- HepG2 cytoxicity (HepG2 cells [5]; value reported with the Pf GCT ATP screen): 4.18 µM

Compound: CC(C)CNCc1cccc(-c2cccc(CNCCCN3CCN(C)CC3)c2)c1.O=C(O)C(F)(F)F [TCMDC-140483]
- Unified cytotox (HepG2 cells [1]; [10]): 25.00 µM
- Is compound selective in assay? Pf GC-ATP active? [2, 11]: 1 (1: YES)
- IC50 [4, 12]: 1560 nM
- HepG2 cytoxicity (HepG2 cells [5]; [13]): >25 µM

Compound: CC(C)CNCc1cccc(-c2ccc(CN(CCCN3CCN(C)CC3)C(=O)CCC3CCCC3)cc2)c1.O=C(O)C(F)(F)F [TCMDC-140558]
- Unified cytotox (HepG2 cells [1]; [10]): 25.00 µM
- Is compound selective in assay? Pf GC-ATP active? [2, 11]: 1 (1: YES)
- IC50 [4, 12]: 700 nM
- HepG2 cytoxicity (HepG2 cells [5]; [13]): >25 µM
